In US8207203B2, “Pyridylisoxazole derivatives” (Aska Pharmaceutical Co., Ltd., priority 2006, dated 2012):

Key:
[1] = Measurement of the compounds' metabolic rate (human liver S9, LC/MS/MS); assay type: in vitro ADME; settings: human liver S9 0.5 mg protein/mL, compound 1 μmol/L, NADPH generating system, pH7.4, 37° C.
Experimental: (2) Measurement of the Compounds' Metabolic Rate:
Each test compound was added to potassium phosphate buffer (50 mmol/L, pH7.4) containing NADPH generating system (comprising 3.3 mmol/L MgCl2, 3.3 mmol/L glucose 6-phosphate, 1.3 mmol/L β-NADP^+ and 0.4 unit/mL glucose 6-phosphate dehydrogenase) (in which occasion the final concentration was rendered 1 μmol/L) and incubated at 37° C. for 2 minutes. After the incubation, a suspension of human liver S9 (the supernatant fraction obtained by centrifuging comminuted human liver cell fluid at 9000×g) in potassium phosphate buffer was added to the system, to the final concentration of 0.5 mg protein/mL. This reaction mixture was incubated at 37° C. for 5 minutes, and to which 4 volume times the reaction mixture of acetonitrile was added, mixed, cooled with ice and centrifuged (2000×g, 10 minutes). A part of the supernatant was taken and analyzed by LC/MS/MS, to determine the remaining rate of unchanged substance in the reaction solution. The results are shown in the following Table A, concurrently with the measured results of TNF-α production-inhibiting action in (1) above.

TNF-α production = assay: Measurement of TNF-α production-inhibiting action (LPS-stimulated THP-1 cells, ELISA); assay type: cell-based; settings: Homo sapiens; test substance 100 nM; THP-1 cells with LPS, 2 hours' culture; TNF-α in supernatant by ELISA; read-out: TNF-α generation-inhibiting action (inhibition: rate: %, 100 nM)
Experimental: (1) Measurement of TNF-α Production-Inhibiting Action
THP-1, human-derived culture cells (purchased from Dainippon Pharmaceutical Co.), was suspended (1×10^5 cells/mL) in RPMI 1640 medium (10% fetal bovine serum, containing 100 units/mL of penicillin). The THP-1 cell suspension 1.6 mL was inoculated in a 24-well culture plate, to which further a solution of test substance as dissolved in RPMI 1640 medium to make the final concentration of the test substance 100 nM and 0.2 mL of LPS (E. coli 055: B5-derived, dissolved in RPMI 1640 medium, Difco) of 10 μg/mL in concentration were added, followed by 2 hours' culture under the conditions of 37° C. and 5% CO2. The supernatant which was obtained upon centrifuge (500×g, 5 minutes) was measured with ELISA (Amersham Biosciences, TNF-α Human, ELISA Biotrak System) to quantize TNF-α. The TNF-α production inhibition rate (%) at 100 nM of each test substance was calculated according to the following formula, […]

SMILES	percent of unchanged compound remaining after 5 min [1] [%]	inhibition at 0.1 µM (TNF-α production) [%]
Cc1cccc(-c2noc(NC(=O)CCc3ccccc3C)c2-c2ccncc2)c1 [Example 106, 3-(3-Methylphenyl)-5-[(2-methylphenyl)propionylamino]-4-(4-pyridyl)isoxazole]	23.3	52.9
Cc1ccc(F)c(-c2noc(NC(=O)CCc3cccc(Cl)c3)c2-c2ccncc2)c1 [Example 117, 5-[(3-Chlorophenyl)propionylamino]-3-(2-fluoro-5-methylphenyl)-4-(4-pyridyl)isoxazole]	50.5	58.1
Cc1cc(-c2noc(NC(=O)Cc3ccccc3Cl)c2-c2ccncc2)ccc1F [Example 124, 5-[(2-Chlorophenyl)acetylamino]-3-(4-fluoro-3-methylphenyl)-4-(4-pyridyl)isoxazole]	59.7	85.2
Cc1cc(-c2noc(NC(=O)CCc3ccccc3)c2-c2ccncc2)ccc1F [Example 125, 3-(4-Fluoro-3-methylphenyl)-5-(3-phenylpropionylamino)-4-(4-pyridyl)isoxazole]	20.1	66
Cc1cccc(-c2noc(NC(=O)CCc3ccccc3)c2-c2ccncc2)c1 [Example 103, 3-(3-Methylphenyl)-5-(3-phenylpropionylamino)-4-(4-pyridyl)-isoxazole]	17.6	65.5
Cc1cc(-c2noc(NC(=O)Cc3ccccc3)c2-c2ccncc2)ccc1F [Example 123, 3-(4-Fluoro-3-methylphenyl)-5-(phenylacetylamino)-4-(4-pyridyl)-isoxazole]	58.0	78.1
